Measured values as given in US4146615A, “Chrysanthellum plant extract” (Laboratoires Sarget, priority 1977, dated 1979).
Read-outs that look alike come from different tables or passages of the source.

How the values were obtained:
[1] = tested on: male mice of the Swiss EOPS strain; assay: Analgesic activity, hot plate test (thermal stimulus); assay type: in vivo, mouse; conditions: 56° C., reaction time ≥150% of reference time
Protocol: Experiments were performed on male mice of the Swiss EOPS strain and two stress-producing stimuli were used: the P.B.Q. test (chemical stimulus) and the hot plate test (thermal stimulus). […] The doses are expressed in mg/kg of animal weight.

[2] = tested on: male mice of the Swiss EOPS strain; assay: Analgesic activity, P.B.Q. test (chemical stimulus); assay type: in vivo, mouse; conditions: 10 minutes before P.B.Q., range in parentheses
Protocol: Experiments were performed on male mice of the Swiss EOPS strain and two stress-producing stimuli were used: the P.B.Q. test (chemical stimulus) and the hot plate test (thermal stimulus).
An aqueous alcoholic solution of 0.02% phenyl p-benzoquinone (P.B.Q.) was administered i.p. to the animals; at the end of 5 minutes this induced abdominal contractions and extension of the mice's hind paws.
The doses are expressed in mg/kg of animal weight.

[3] = tested on: edema of the rat ear induced by croton oil; assay: Local anti-inflammatory action, edema of the rat ear induced by croton oil (Le Douarec); assay type: in vivo; conditions: topical
Protocol: This was determined by the technique of edema of the rat ear induced by croton oil according to the method of Le Douarec. The irritant mixture was prepared from two solutions: solution A which contained 10 ml of pyridine, 2.5 ml of water and 12.5 ml of ethyl acetate and in which the test sample was dissolved; solution B, which contained 1 ml of croton oil and 24 ml of ethyl acetate. The two solutions A and B were mixed together before use. Edema was induced by swabbing the ear with a cotton wad moistened with the irritant mixture (about 1 ml of mixture per rat).

[4] = tested on: EOPS mouse; conditions: Mice
Protocol: Acute toxicity was determined in the EOPS mouse, the standard Wistar rat and the EOPS Wistar rat for several methods of administration. The products were administered orally in suspension in gum julep, and i.p. and i.v. in a physiological solution neutralized with NaOH.
In all cases the doses are expressed in mg per kg of animal weight.

[5] = tested on: constraint ulcer; assay: Anti-ulcer activity, constraint ulcer test (Bonfils); assay type: in vivo, rat; conditions: 50 mg/kg PO
Protocol: The anti-ulcer activity was determined in female EOPS Wistar rats in the constraint ulcer test by the technique of Bonfils.
After 24 hours without food the rats, lightly anesthetized with ether, were immobilized in pliable metal-lattice corselets. The paws were tied together in pairs. The rats were suspended in their cages so that they could not touch any point of support. Just before anesthesia the test samples were administered PO in suspension in gum julep in a volume of 0.5 cc/100g. The animals were left constrained for 24 hours and then killed with ether. The stomachs were removed and cut along the greatest curvature. They were stretched out on cork slabs covered with glazed paper to facilitate examination and photographing. A scale of 0 to 4 was used for the number and dimension of ulcerations (0 for no ulceration, 4 for more than 4 ulcers or a perforation).

[6] = tested on: male standard Wistar rats; assay: Intoxication by slow IV perfusion in the anesthetized rat
Protocol: The carotid pressure, the heart rate, the respiration and the electrocardiogram were recorded on lead DII. […] The products were administered in solution in physiological serum. The solutions were neutralized with bicarbonate.

[7] = tested on: EOPS Wistar rat; assay: Acute toxicity in the EOPS Wistar rat (Litchfield and Wilcoxon); assay type: in vivo; conditions: EOPS Wistar rats, IP
[8] = tested on: Edema from Carrageenan; assay: Anti-inflammatory activity, edema test with carrageenan; assay type: in vivo, rat; conditions: i.p.
Protocol: This effect was determined in the edema test with carrageenan in male EOPS Wistar rats. A volume of 0.1 ml of a suspension of 0.5% carrageenan in physiologic serum was injected into the muscle bundle of the metatarsal region of the animal's hind paws. The test sample was administered i.p. in neutralized physiologic solution simultaneously with the carrageenan. The edema was measured by plethysmometry 2, 3 and 6 hours after the administration of carrageenan.

[9] = tested on: capillary permeability; assay type: in vivo, rat
Protocol: The capillary permeability was determined by the method of […]., and […]., Arch. Inter. Physiol. […] The products were administered i.p. for capillary permeability, the ED 50 as well as the regression analysis equation expressing the effect on the capillary permeability as a function of the dose expressed in mg/kg.

[10] = tested on: capillary resistance; assay: Capillaroprotector effects, capillary resistance; assay type: in vivo, rat
Protocol: The capillary resistance was determined by a variant of the method of Charlier R., Hosslet A., and Colot M., Arch. Inter. Physiol. Biochem., 71, 1-45 (1963) in Sprague Dowley EOPS rats. The products were administered i.p.

## CCCCC1C(=O)N(c2ccccc2)N(c2ccccc2)C1=O [Phenylbutazone]
[1]; Mus musculus, ip, read-out: Hot Plate Test AD 50
  ED50: 125 mg/kg
[2]; Mus musculus, ip, read-out: P.B.Q. Test ED 50
  ED50: 14 mg/kg

## CC(=O)Oc1ccccc1C(=O)O [Aspirin]
[3]; 25 mg/ml of mixture
  % of Activity (inhibition of the edema): 27%
[3]; 50 mg/ml of mixture
  % of Activity (inhibition of the edema): 65%

## β-aescine
[4]; IP
  MTD (maximum tolerated dose): 2.5 mg per kg
[4]; IV
  MTD (maximum tolerated dose): < 1.25 mg per kg
[5]
  % of Anti-Ulcer Activity: 13%
[1]; i.p.
  Hot Plate Test AD 50: 4.5 mg/kg
[6]; 1 mg/kg/min
  arterial pressure: a slight hypotension was observed at the beginning of the perfusion; the arterial pressure next increased, then abruptly dropped to end rapidly in death
[6]; up to 0.1 mg/kg/min
  arterial pressure and heart and respiratory rates: tended to increase
[2]; i.p.
  P.B.Q. Test ED 50: 2.7 (1.7-7.5) mg/kg
[7]
  MTD (maximum tolerated dose): < 6.25 mg per kg
[8]; 2 hours after carrageenan
  Edema from Carrageenan ED 50: 6.5 mg/kg
[8]; 3 hours after carrageenan
  Edema from Carrageenan ED 50: 8.5 mg/kg
[8]; 6 hours after carrageenan
  Edema from Carrageenan ED 50: 7.5 mg/kg

## Sodium escinate
[9]; i.p., standard Wistar rat, range in parentheses
  Capillary Permeability ED 50: 12 (10-15) mg/kg
[9]; rat, not told
  Capillary permeability regression equation, constant term: 159
  Capillary permeability regression equation, slope (coefficient of X): -6.50
[10]; dose 5 mg/kg i.p.
  Capillary Resistance activity: 26 ± 15 ucmHg/hour
  Capillary Resistance, % of animals with activity ≥25: 60%
[10]; dose 10 mg/kg i.p.
  Capillary Resistance activity: 78 ± 24 ucmHg/hour
  Capillary Resistance, % of animals with activity ≥25: 100%
